According to ChEMBL document CHEMBL1641428, “Inhibition of the β-carbonic anhydrase from Streptococcus pneumoniae by inorganic anions and small molecules: Toward innovative drug design of antiinfectives?” (Bioorg Med Chem, 2011):
pKi: −log10 of the molar value.

Tests used:
Carbonic anhydrase 2 = Carbonic anhydrase 2 (Homo sapiens, UniProt P00918); assay: Inhibition of human carbonic anhydrase 2 after 15 mins by stopped flow CO2 hydration assay
Carbonic anhydrase 1 = Carbonic anhydrase 1 (Homo sapiens, UniProt P00915); assay: Inhibition of human carbonic anhydrase 1 after 15 mins by stopped flow CO2 hydration assay
Carbonic anhydrase 1, sequence (P00915 whole entry): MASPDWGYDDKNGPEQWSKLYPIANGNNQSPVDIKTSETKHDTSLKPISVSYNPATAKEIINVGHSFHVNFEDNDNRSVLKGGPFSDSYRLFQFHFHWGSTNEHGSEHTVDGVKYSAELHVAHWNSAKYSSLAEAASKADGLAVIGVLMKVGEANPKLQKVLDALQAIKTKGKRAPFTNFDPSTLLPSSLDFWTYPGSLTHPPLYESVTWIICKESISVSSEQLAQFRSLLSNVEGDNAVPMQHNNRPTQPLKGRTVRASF

SMILES: O=S(=O)(O)ONOS(=O)(=O)O [SODIUM IMINODISULFATE]
- pKi (Carbonic anhydrase 2): 6.12
- pKi (Carbonic anhydrase 1): 6.51
